Results: patent US20230286973A1, “PROTEIN SECRETION INHIBITORS” (KEZAR LIFE SCIENCES, priority 2020, published 2023)

What was measured:
[1] = system: PD1-ss+10aa/Gaussia Luciferase; test: Dox-Induced PD1-ss-Gluc Assay; format: cell-based; settings: 24 hr Dox induction; 293FRT/TO cells; mean; read-out: 24 hr Dox Inducible PD1ssGluc 293FRT/TO: Mean IC50
From the text: Flp-In 293 T-REx™ cells were transfected with pcDNA™5/FRT/TO plasmid inserted with cDNA encoding Gaussia Luciferase fused to the 3′ end of cDNA encoding PD1 signal sequence plus 10 amino acids (N-[…]-C) (SEQ ID NO: 1). Transfected cells were selected for resistance to the selectable markers Hygromycin and Blasticidin to create a stable cell line that contained the PD1-ss+10aa/Gaussia Luciferase cDNA insert whose expression was regulated under the T-REx™ system. The day before assay, cells were trypsinized and plated in 384-well tissue culture plates. The next day, compound dilutions in DMSO/media containing doxycycline were added to the wells and incubated at 37° C., 5% CO2.
(§1) For chemical structures that include one or more stereoisomers, but are illustrated without indicating stereochemistry, the assay data refers to a mixture of stereoisomers.

[2] = system: IL-2-FL/Gaussia Luciferase; test: Dox Induced IL2-FL-Gluc Assay; format: cell-based; settings: for IC50: 24 hr Dox induction, 293FRT/TO cells, mean, read-out: 24 hr Dox Inducible IL2FLGluc 293FRT/TO: Mean IC50; for 24 hr Dox Inducible IL2FLGluc 293FRT/TO: IL2/PD1: ratio of IL2FLGluc IC50 to PD1ssGluc IC50, '<=>' given where both are I.A.
From the text: Flp-In 293 T-REx™ cells were transfected with pcDNA™5/FRT/TO plasmid inserted with cDNA encoding Gaussia Luciferase fused to the 3′ end of cDNA encoding full length IL-2 (amino acids 1-153). Transfected cells were selected for resistance to the selectable markers Hygromycin and Blasticidin to create a stable cell line that contained the IL-2-FL/Gaussia Luciferase cDNA insert whose expression was regulated under the T-REx™ system. The day before assay, cells were trypsinized and plated in 384-well tissue culture plates. The next day, compound dilutions in DMSO/media containing doxycycline were added to the wells and incubated at 37° C., 5% CO2.
as §1

[3] = system: multiple myeloma cell line NCI-H929; test: H929 Cell Viability Assay; format: cell-based, human; settings: Homo sapiens, NCI-H929, 48 h, NCI-H929 cells, Celltiter-Glo
Procedure: The human multiple myeloma cell line NCI-H929 was cultured in Advanced RPMI 1640 media (Gibco®) supplemented with 6% fetal bovine serum, 2 mM Glutamine, and 1× Penicillin/Streptomycin. On the day of assay, cells were resuspended in RPMI 1640 media supplemented with 10% fetal bovine serum, 2 mM Glutamine, and 1× Penicillin/Streptomycin and plated in 384-well tissue culture plates and treated with compound dilutions in DMSO/media. Plates were incubated at 37° C., 5% CO2 for 48 hours. After 48 hours, Celltiter-Glo® (Promega) was added to each well and luciferase signal was quantified using Tecan Infinite M1000 Pro for cell viability determination.
as §1

[4] = system: multiple myeloma cell line U266B1; test: U266 Cell Viability Assay; format: cell-based, human; settings: Homo sapiens, U-266, 48 h, U266B1 cells, Celltiter-Glo
Procedure: The human multiple myeloma cell line U266B1 was cultured in RPMI 1640 media supplemented with 10% fetal bovine serum, 2 mM Glutamine, and 1× Penicillin/Streptomycin. Cells were plated in 384-well tissue culture plates and treated with compound dilutions in DMSO/media. Plates were incubated at 37° C., 5% CO2 for 48 hours. After 48 hours, Celltiter-Glo® (Promega) was added to each well and luciferase signal was quantified using Tecan Infinite M1000 Pro for cell viability determination.
as §1

[5] = Liver Microsome Stability Assay (rat); settings: rat liver microsomes, with NADPH, 1.0 uM compound
Procedure: (§2) Stability of a compound was assessed in the presence of liver microsomes from various sources—mouse, rat, monkey and human liver microsomes. 1.0 uM compound, 0.4% DMSO in 0.1 M Potassium Phosphate with 1.0 mg/mL liver microsomes, were incubated at 37° C. with or without 1 mM NADPH. The samples were quenched at 0, and 30 minutes.

[6] = Liver Microsome Stability Assay (mouse); settings: mouse liver microsomes, with NADPH, 1.0 uM compound
Procedure: as §2

[7] = Liver Microsome Stability Assay (human); settings: human liver microsomes, with NADPH, 1.0 uM compound
Procedure: as §2

[8] = Liver Microsome Stability Assay (monkey); settings: monkey liver microsomes, with NADPH, 1.0 uM compound
Procedure: as §2

Row | SMILES | IC50 [1] | IC50 [2] | 24 hr Dox Inducible IL2FLGluc 293FRT/TO: IL2/PD1 [2] | EC50 [3] | EC50 [4] | Liver Microsome Stability (Multiple Species): Rat - % Remaining after 30 min w/NADPH [5] | Liver Microsome Stability (Multiple Species): Mouse - % Remaining after 30 min w/NADPH [6] | Liver Microsome Stability (Multiple Species): Human - % Remaining after 30 min w/NADPH [7] | Liver Microsome Stability (Multiple Species): Monkey - % Remaining after 30 min w/NADPH [8]
1 | C#CCCCCn1cccc1C(=O)Nc1nc([C@H]2CCCN2c2ccccc2)cs1 [Compound C30, (R)-1-(hex-5-yn-1-yl)-N-(4-(1-phenylpyrrolidin-2-yl)thiazol-2-yl)-1H-pyrrole-2-carboxamide] | 5.21 µM | 5.62 µM | 1.1 | > 25 µM | > 25 µM | 9.91% | 37.6% | 39.8% | 5.63%
2 | C#CCCCn1cccc1C(=O)Nc1nc([C@H]2CCCN2c2ccccc2)cs1 [Compound C31, (R)-1-(pent-4-yn-1-yl)-N-(4-(1-phenylpyrrolidin-2-yl)thiazol-2-yl)-1H-pyrrole-2-carboxamide] | 4.12 µM | 7.05 µM | 1.7 | > 25 µM | > 25 µM | 5.84% | 38.7% | 53.4% | 1.3%
3 | C#CCn1cccc1C(=O)Nc1nc([C@H]2CCCN2c2ccccc2)cs1 [Compound C33, (R)-N-(4-(1-phenylpyrrolidin-2-yl)thiazol-2-yl)-1-(prop-2-yn-1-yl)-1H-pyrrole-2-carboxamide] | 9.67 µM | 6.05 µM | 0.63 | 23.8 µM | > 25 µM | 20.3% | 41.1% | 54.7% | 65%
4 | O=C(Nc1nc([C@H]2CCCN2c2ccccc2)cs1)c1cccn1CC1CCS(=O)(=O)CC1 [Compound C37, (R)-1-((1,1-dioxidotetrahydro-2H-thiopyran-4-yl)methyl)-N-(4-(1-phenylpyrrolidin-2-yl)thiazol-2-yl)-1H-pyrrole-2-carboxamide] | > 25 µM | > 25 µM | – | > 25 µM | > 25 µM | 0.08% | 26% | 6.44% | 8.58%
5 | O=C(Nc1nc([C@H]2CCCN2c2ccccc2)cs1)c1cccn1CC1CCCCC1 [Compound C39, (R)-1-(cyclohexylmethyl)-N-(4-(1-phenylpyrrolidin-2-yl)thiazol-2-yl)-1H-pyrrole-2-carboxamide] | 2.75 µM | 3.35 µM | 1.2 | > 25 µM | > 25 µM | 56.6% | 64.7% | 79.7% | 53.9%
6 | N#Cc1cccc(Cn2cccc2C(=O)Nc2nc([C@H]3CCCN3c3ccccc3)cs2)c1 [Compound C49, (R)-1-(3-cyanobenzyl)-N-(4-(1-phenylpyrrolidin-2-yl)thiazol-2-yl)-1H-pyrrole-2-carboxamide] | 0.909 µM | 1.64 µM | 1.8 | > 25 µM | > 25 µM | 2.9% | 29.1% | 1.94% | 9.17%
7 | N#Cc1ccc(Cn2cccc2C(=O)Nc2nc([C@H]3CCCN3c3ccccc3)cs2)cc1 [Compound C50, (R)-1-(4-cyanobenzyl)-N-(4-(1-phenylpyrrolidin-2-yl)thiazol-2-yl)-1H-pyrrole-2-carboxamide] | 3.14 µM | 2.06 µM | 0.66 | > 25 µM | > 25 µM | 15.1% | 54.5% | 33.8% | 33.4%
8 | O=C(Nc1nc([C@H]2CCCN2c2ccccc2)cs1)c1cccn1CC1=CCOCC1 [Compound C57, (R)-1-((3,6-dihydro-2H-pyran-4-yl)methyl)-N-(4-(1-phenylpyrrolidin-2-yl)thiazol-2-yl)-1H-pyrrole-2-carboxamide] | 0.357 µM | 1.07 µM | 3 | 23.3 µM | > 25 µM | 0.43% | 9.54% | 4.2% | 3.43%
9 | C#CCCn1cccc1C(=O)Nc1nc([C@H]2CCCN2c2ccccc2)cs1 [Compound C62, (R)-1-(but-3-yn-1-yl)-N-(4-(1-phenylpyrrolidin-2-yl)thiazol-2-yl)-1H-pyrrole-2-carboxamide] | 8.44 µM | > 25 µM | >3.0 | > 25 µM | > 25 µM | 8.75% | 35.4% | 53% | 0.74%
10 | O=C(Nc1nc([C@H]2CCCN2c2ccccc2)cs1)c1cccn1Cc1cccnc1 [Compound E20, (R)-N-(4-(1-phenylpyrrolidin-2-yl)thiazol-2-yl)-1-(pyridin-3-ylmethyl)-1H-pyrrole-2-carboxamide] | 2.52 µM | 5 µM | 2 | 24.6 µM | 23.3 µM | 0.14% | 0.82% | 0.96% | 0.62%
11 | O=C(Nc1nc([C@H]2CCCN2c2ccccc2)cs1)c1ccc[nH]1 [Compound E58, (R)-N-(4-(1-phenylpyrrolidin-2-yl)thiazol-2-yl)-1H-pyrrole-2-carboxamide] | 8.24 µM | > 25 µM | >3.0 | > 25 µM | > 25 µM | 1.33% | 8.68% | 26.7% | 7.34%
